Active and inactive are the calls of the source. The calls are words filed in the database; no cut-off is given here.
Columns and labels:
[1] = system: MCF7; test: Cytotoxicity against human MCF7 cells at 100 uM; assay type: functional
[2] = Cytotoxicity against human NFF cells at 100 uM; assay type: cell-based; details: read-out: INH
[3] = system: Staphylococcus aureus; test: Antimicrobial activity against methicillin-sensitive Staphylococcus aureus ATCC 25923 at 0.1 to 10 mM after 20 hrs by CLSI broth microdilution method; assay type: functional, organism-based
[4] = system: Candida albicans; test: Antimicrobial activity against Candida albicans ATCC 10231 at 0.1 to 10 mM after 20 hrs by CLSI broth microdilution method; assay type: functional, organism-based
[5] = system: Pseudomonas aeruginosa; test: Antimicrobial activity against Pseudomonas aeruginosa NCTC 10662 at 0.1 to 10 mM after 20 hrs by CLSI broth microdilution method; assay type: functional, organism-based
[6] = system: Staphylococcus aureus; test: Antimicrobial activity against multidrug-resistant Staphylococcus aureus ATCC 43300 at 0.1 to 10 mM after 20 hrs by CLSI broth microdilution method; assay type: functional, organism-based
[7] = system: Escherichia coli; test: Antimicrobial activity against Escherichia coli ATCC 25922 at 0.1 to 10 mM after 20 hrs by CLSI broth microdilution method; assay type: functional, organism-based
[8] = system: MM96L; test: Cytotoxicity against human MM96L cells at 100 uM; assay type: functional
[9] = system: Enterococcus faecalis; test: Antimicrobial activity against Enterococcus faecalis ATCC 19433 at 0.1 to 10 mM after 20 hrs by CLSI broth microdilution method; assay type: functional, organism-based

| Structure (SMILES) | inhibition at 100 µM [1] [%] | cytotoxicity at 100 µM [2] [%] | Activity [3] | Activity [4] | Activity [5] | Activity [6] | Activity [7] | inhibition at 100 µM [8] [%] | Activity [9] |
| --- | --- | --- | --- | --- | --- | --- | --- | --- | --- |
| COc1cc(Br)cc2c(=O)cc(C(=O)O)[nH]c12 | 40 | 58 | inactive | inactive | inactive | inactive | inactive | 54 | inactive |
| O=C(O)c1cc(=O)c2cc(Br)c(Br)cc2[nH]1 | 49 | 66 | inactive | inactive | inactive | inactive | inactive | 69 | inactive |
| O=C(O)c1cc(O)c2ccc(Br)cc2n1 | 39 | 57 | inactive | inactive | inactive | inactive | inactive | 62 | inactive |
| COc1c(Br)c(Br)cc2c(=O)cc(C(=O)O)[nH]c12 | 38 | 68 | inactive | inactive | inactive | inactive | inactive | 52 | inactive |

— ChEMBL document CHEMBL1221343, “Caelestines A-D, brominated quinolinecarboxylic acids from the Australian ascidian Aplidium caelestis” (J Nat Prod, 2010)
